Test results: patent US20250243171A1, “QUINAZOLINE COMPOUNDS FOR TREATMENT OF DISEASE” (Arthrosi Therapeutics, Inc., priority 2021, published 2025)

Experiments:
Assay in all cases: EC50 assay: Ba/F3 stable cell proliferation (CCK-8, 72 h)
Type in all cases: cell-based
Ba/F3 stable cells [1] = target: T1, Ba/F3 stable cells (Homo sapiens, UniProt P04626, DUP772-775, cells depend on it); details: Ba/F3-HER2 A775-G776insYVMA cells
T1 construct: EC50 Ba/F3-HER2 A775-G776insYVMA; other: Ba/F3-HER2 A775-G776insYVMA cells, 72 h, CCK-8
Experimental: (§1) 4,000 Ba/F3 stable cells/90 μL/well were plated onto 96-well cell culture plate (Grenier, Cat.No. 655180) and incubated at 37° C. with a humidified atmosphere of 5% CO2 for 2 h. Then the cells were treated with 10 μL compounds at serial titration. The final DMSO concentration is 0.1%. The cells treated with 0.1% DMSO (Vetec, Cat.No.V900090) as a positive control (Max), and medium with 0.1% DMSO was as a negative control (Min). Incubated the cells at 37° C. for 72 h. 10 μL the cell proliferation reagent CCK-8 (Dojindo, Cat.No. CK04 1000T) was added into each well and incubated the plate at 37° C. for 4 hours, the GD value was measured by SPECTRAmax plus (Molecular Devices) at 450 nm. Data processing with Graphpad 7.0.

Ba/F3 stable cells [2] = target: T2, Ba/F3 stable cells (Homo sapiens, UniProt P00533, DUP771-773, cells depend on it); details: Ba/F3-EGFR H773-V774insNPH cells
T2 construct: EC50 Ba/F3-EGFR H773-V774insNPH; other: Ba/F3-EGFR H773-V774insNPH cells, 72 h, CCK-8
Experimental: as §1

Ba/F3 stable cells [3] = target: T3, Ba/F3 stable cells (Homo sapiens, UniProt P00533, T790M/L858R, cells depend on it); details: Ba/F3-EGFR L858R-T790M cells
T3 construct: EC50 Ba/F3-EGFR L858R-T790M; other: Ba/F3-EGFR L858R-T790M cells, 72 h, CCK-8
Experimental: as §1

Ba/F3 stable cells [4] = target: T4, Ba/F3 stable cells (Homo sapiens, UniProt P00533, INS763FQEA, cells depend on it); details: Ba/F3-EGFR A763-Y764insFQEA cells
T4 construct: EC50 Ba/F3-EGFR A763-Y764insFQEA; other: Ba/F3-EGFR A763-Y764insFQEA cells, 72 h, CCK-8
Experimental: as §1

Ba/F3 stable cells [5] = target: T5, Ba/F3 stable cells (Homo sapiens, UniProt P00533, DUP767-769, cells depend on it); details: Ba/F3-EGFR V769-D770insASV cells
T5 construct: EC50 Ba/F3-EGFR V769-D770insASV; other: Ba/F3-EGFR V769-D770insASV cells, 72 h, CCK-8
Experimental: as §1

Ba/F3 stable cells [6] = target: T6, Ba/F3 stable cells (Homo sapiens, UniProt P00533, DUP768-770, cells depend on it); details: Ba/F3-EGFR D770-N771insSVD cells
T6 construct: EC50 Ba/F3-EGFR D770-N771insSVD; other: Ba/F3-EGFR D770-N771insSVD cells, 72 h, CCK-8
Experimental: as §1

T1 sequence (P04626 with tags, fused parts or gaps DUP772-775): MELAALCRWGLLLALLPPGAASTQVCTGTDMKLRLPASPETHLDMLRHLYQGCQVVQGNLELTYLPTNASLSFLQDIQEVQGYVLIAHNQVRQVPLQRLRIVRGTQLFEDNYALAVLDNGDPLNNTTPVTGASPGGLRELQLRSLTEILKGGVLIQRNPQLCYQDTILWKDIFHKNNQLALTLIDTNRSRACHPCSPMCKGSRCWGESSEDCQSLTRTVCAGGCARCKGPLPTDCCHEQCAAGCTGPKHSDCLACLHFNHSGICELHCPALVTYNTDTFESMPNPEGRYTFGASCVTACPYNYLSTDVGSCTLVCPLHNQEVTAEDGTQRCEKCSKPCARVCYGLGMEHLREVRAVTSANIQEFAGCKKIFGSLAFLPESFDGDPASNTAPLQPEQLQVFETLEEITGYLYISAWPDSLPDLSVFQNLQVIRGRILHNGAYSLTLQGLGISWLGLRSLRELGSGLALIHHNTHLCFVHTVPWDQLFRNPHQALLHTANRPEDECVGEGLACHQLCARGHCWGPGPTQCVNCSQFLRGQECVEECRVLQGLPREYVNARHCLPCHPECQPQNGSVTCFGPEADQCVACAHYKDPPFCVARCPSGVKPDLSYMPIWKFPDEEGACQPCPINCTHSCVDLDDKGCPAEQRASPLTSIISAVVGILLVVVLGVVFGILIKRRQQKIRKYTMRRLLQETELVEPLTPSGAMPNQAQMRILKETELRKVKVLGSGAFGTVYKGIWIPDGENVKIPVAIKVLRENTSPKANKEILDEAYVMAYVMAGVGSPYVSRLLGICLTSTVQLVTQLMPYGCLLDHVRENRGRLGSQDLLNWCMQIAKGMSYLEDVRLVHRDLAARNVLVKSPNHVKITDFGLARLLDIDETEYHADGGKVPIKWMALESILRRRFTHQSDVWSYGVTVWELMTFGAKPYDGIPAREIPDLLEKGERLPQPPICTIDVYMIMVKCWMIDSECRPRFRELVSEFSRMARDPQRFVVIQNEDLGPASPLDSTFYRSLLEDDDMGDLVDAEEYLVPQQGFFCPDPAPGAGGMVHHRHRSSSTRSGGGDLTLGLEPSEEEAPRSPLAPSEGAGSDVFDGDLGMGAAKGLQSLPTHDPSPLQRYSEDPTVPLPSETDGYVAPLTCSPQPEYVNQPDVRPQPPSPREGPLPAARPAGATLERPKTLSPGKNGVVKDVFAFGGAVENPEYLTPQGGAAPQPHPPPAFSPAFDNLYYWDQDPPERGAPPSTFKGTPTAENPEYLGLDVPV
T5 sequence (P00533 with tags, fused parts or gaps DUP767-769): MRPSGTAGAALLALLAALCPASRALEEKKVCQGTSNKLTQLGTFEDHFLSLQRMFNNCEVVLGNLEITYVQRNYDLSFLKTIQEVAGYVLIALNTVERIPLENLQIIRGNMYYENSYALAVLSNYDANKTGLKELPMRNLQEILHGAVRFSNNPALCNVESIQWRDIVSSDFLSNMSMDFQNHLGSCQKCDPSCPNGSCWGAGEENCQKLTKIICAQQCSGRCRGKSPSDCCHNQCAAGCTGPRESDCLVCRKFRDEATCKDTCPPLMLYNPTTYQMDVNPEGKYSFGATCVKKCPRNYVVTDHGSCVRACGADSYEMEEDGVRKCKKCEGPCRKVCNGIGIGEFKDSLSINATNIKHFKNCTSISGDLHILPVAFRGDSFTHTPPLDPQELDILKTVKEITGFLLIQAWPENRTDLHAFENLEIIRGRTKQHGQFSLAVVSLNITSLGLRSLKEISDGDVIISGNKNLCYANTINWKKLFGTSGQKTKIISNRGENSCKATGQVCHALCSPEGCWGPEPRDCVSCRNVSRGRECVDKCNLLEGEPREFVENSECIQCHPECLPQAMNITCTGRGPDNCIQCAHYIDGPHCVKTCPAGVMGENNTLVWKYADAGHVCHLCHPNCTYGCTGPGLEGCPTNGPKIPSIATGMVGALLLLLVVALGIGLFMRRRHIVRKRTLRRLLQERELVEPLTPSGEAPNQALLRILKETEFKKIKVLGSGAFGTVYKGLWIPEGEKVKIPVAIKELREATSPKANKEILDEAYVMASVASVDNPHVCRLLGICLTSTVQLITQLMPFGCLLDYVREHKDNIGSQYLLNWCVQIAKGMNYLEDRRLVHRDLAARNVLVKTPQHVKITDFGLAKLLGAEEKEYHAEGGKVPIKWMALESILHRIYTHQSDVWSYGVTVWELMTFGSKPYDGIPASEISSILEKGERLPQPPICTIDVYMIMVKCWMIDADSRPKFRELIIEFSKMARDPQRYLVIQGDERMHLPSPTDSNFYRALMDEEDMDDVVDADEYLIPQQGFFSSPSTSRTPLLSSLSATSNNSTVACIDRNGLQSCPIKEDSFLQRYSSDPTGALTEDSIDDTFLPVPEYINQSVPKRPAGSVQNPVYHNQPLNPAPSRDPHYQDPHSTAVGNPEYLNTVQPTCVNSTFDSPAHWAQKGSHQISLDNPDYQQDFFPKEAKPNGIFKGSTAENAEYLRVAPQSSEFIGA
T4 sequence (P00533 with tags, fused parts or gaps INS763FQEA): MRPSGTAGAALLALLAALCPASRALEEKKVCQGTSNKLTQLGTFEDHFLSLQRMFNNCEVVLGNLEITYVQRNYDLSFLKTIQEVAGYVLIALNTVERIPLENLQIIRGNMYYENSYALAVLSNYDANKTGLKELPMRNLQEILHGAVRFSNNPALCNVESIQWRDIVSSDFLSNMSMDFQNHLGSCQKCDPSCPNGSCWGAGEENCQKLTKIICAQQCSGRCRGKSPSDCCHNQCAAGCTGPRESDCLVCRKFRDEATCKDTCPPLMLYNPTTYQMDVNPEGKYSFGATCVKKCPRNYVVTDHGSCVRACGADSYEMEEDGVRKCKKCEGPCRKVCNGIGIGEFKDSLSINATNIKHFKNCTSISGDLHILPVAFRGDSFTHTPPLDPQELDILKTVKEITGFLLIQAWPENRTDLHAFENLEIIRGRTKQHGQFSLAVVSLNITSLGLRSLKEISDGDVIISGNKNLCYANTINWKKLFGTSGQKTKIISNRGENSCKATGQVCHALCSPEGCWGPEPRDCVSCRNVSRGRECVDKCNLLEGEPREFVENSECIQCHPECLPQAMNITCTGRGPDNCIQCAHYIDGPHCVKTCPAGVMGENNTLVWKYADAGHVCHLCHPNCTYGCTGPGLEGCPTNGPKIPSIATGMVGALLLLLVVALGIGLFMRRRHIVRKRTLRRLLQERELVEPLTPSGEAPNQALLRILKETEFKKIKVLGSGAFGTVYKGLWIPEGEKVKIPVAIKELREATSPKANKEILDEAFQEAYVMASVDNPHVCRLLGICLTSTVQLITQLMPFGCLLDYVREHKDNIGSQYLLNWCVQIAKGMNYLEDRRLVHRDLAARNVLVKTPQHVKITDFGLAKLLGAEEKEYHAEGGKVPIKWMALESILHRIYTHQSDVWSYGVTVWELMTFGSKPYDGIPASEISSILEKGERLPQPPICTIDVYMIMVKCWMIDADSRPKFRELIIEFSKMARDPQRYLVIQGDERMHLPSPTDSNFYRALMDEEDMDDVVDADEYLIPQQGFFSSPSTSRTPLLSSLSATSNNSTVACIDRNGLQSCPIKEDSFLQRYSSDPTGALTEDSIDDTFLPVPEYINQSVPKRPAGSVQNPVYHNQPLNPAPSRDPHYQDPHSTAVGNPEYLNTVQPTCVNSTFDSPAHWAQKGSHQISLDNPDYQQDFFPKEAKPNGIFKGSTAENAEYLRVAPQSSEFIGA
T2 sequence (P00533 with tags, fused parts or gaps DUP771-773): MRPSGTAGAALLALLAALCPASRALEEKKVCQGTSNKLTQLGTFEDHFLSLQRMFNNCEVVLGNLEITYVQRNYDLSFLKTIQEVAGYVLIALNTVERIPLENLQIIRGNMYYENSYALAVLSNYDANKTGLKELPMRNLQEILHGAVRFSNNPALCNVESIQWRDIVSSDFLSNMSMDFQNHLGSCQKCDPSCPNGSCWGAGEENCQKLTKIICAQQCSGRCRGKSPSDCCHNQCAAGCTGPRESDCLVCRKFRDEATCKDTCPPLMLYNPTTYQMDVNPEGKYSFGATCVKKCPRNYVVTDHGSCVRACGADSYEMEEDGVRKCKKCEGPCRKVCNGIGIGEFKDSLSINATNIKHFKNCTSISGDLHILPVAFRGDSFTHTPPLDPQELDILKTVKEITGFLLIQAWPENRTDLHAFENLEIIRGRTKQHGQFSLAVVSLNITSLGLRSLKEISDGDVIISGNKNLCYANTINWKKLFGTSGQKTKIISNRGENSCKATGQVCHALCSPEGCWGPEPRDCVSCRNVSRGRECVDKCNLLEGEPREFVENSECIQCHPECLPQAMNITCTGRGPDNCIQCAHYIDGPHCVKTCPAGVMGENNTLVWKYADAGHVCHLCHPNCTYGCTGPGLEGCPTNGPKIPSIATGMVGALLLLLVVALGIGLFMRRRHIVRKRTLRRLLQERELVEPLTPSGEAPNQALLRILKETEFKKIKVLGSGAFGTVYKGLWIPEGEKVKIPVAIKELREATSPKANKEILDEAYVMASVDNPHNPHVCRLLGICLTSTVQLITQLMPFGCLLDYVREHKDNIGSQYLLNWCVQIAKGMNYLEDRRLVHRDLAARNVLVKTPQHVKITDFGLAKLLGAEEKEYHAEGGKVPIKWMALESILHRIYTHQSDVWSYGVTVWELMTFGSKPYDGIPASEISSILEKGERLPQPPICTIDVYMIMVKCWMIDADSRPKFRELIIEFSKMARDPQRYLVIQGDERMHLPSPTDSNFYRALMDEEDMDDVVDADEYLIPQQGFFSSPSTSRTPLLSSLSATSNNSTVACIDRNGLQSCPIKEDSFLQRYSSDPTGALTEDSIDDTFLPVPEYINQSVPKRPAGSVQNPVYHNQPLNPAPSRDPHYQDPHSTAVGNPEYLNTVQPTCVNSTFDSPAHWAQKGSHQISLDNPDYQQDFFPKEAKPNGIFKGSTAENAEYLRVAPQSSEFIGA

| Compound | EC50 (Ba/F3 stable cells [1]) [nM] | EC50 (Ba/F3 stable cells [2]) [nM] | EC50 (Ba/F3 stable cells [3]) [nM] | EC50 (Ba/F3 stable cells [4]) [nM] | EC50 (Ba/F3 stable cells [5]) [nM] | EC50 (Ba/F3 stable cells [6]) [nM] |
| --- | --- | --- | --- | --- | --- | --- |
| C#CC(=O)N1CC(c2cc3c(Nc4ccc(OCc5ccccc5)c(Cl)c4F)ncnc3cc2OC)C1 [Compound 41, 1-(3-(4-((4-(benzyloxy)-3-chloro-2-fluorophenyl)amino)-7-methoxyquinazolin-6-yl)azetidin-1-yl)prop-2-yn-1-one] | > 1000 | > 1000 | > 1000 | 200 to 1000 | > 1000 | > 1000 |
| COc1cc2ncnc(Nc3ccc(Cl)c(Cl)c3F)c2cc1OC1CC(NC(=O)/C=C/CN(C)C)C1 (stereo not drawn) [Compound 42, (E)-N-(3-((4-((3,4-dichloro-2-fluorophenyl)amino)-7-methoxyquinazolin-6-yl)oxy)cyclobutyl)-4-(dimethylamino)but-2-enamide] | 200 to 1000 | 200 to 1000 | > 1000 | ≤ 200 | ≤ 200 | 200 to 1000 |
| CC#CC(=O)NC1CC(Oc2cc3c(Nc4ccc(Cl)c(Cl)c4F)ncnc3cc2OC)C1 (stereo not drawn) [Compound 43, N-(3-((4-((3,4-dichloro-2-fluorophenyl)amino)-7-methoxyquinazolin-6-yl)oxy)cyclobutyl)but-2-ynamide] | 200 to 1000 | > 1000 | > 1000 | ≤ 200 | 200 to 1000 | 200 to 1000 |
| C#CC(=O)N[C@H]1C[C@H](Oc2cc3c(Nc4cccc5c4CCC5)ncnc3cc2OC)C1 [Compound 44, N-((1r,3r)-3-((4-((2,3-dihydro-1H-inden-4-yl)amino)-7-methoxyquinazolin-6-yl)oxy)cyclobutyl)propiolamide] | 200 to 1000 | ≤ 200 | 200 to 1000 | ≤ 200 | ≤ 200 | 200 to 1000 |
| C#CC(=O)N[C@H]1C[C@@H](Oc2cc3c(Nc4cccc5c4CCC5)ncnc3cc2OC)C1 [Compound 45, N-((1s,3s)-3-((4-((2,3-dihydro-1H-inden-4-yl)amino)-7-methoxyquinazolin-6-yl)oxy)cyclobutyl)propiolamide] | > 1000 | > 1000 | > 1000 | ≤ 200 | > 1000 | > 1000 |
| C#CC(=O)NC1CC(Oc2cc3c(Nc4cccc5ccccc45)ncnc3cc2OC)C1 (stereo not drawn) [Compound 46, N-(3-((7-methoxy-4-(naphthalen-1-ylamino)quinazolin-6-yl)oxy)cyclobutyl)propiolamide] | ≤ 200 | ≤ 200 | ≤ 200 | ≤ 200 | ≤ 200 | 200 to 1000 |
| C#CC(=O)N[C@H]1C[C@@H](Oc2cc3c(Nc4cccc5ccccc45)ncnc3cc2OC)C1 [Compound 47, N-((1s,3s)-3-((7-methoxy-4-(naphthalen-1-ylamino)quinazolin-6-yl)oxy)cyclobutyl)propiolamide] | 200 to 1000 | ≤ 200 | ≤ 200 | ≤ 200 | ≤ 200 | ≤ 200 |
| C#CC(=O)N[C@H]1C[C@H](Oc2cc3c(Nc4ccc5ccccc5c4)ncnc3cc2OC)C1 [Compound 48, N-((1r,3r)-3-((7-methoxy-4-(naphthalen-2-ylamino)quinazolin-6-yl)oxy)cyclobutyl)propiolamide] | 200 to 1000 | 200 to 1000 | ≤ 200 | ≤ 200 | ≤ 200 | 200 to 1000 |
| C#CC(=O)NC1CC(Oc2cc3c(Nc4ccc(Cl)c(Cl)c4F)ncnc3cc2OC)C1 (stereo not drawn) [Compound 49, N-(3-((4-((3,4-dichloro-2-fluorophenyl)amino)-7-methoxyquinazolin-6-yl)oxy)cyclobutyl)propiolamide] | 200 to 1000 | ≤ 200 | ≤ 200 | ≤ 200 | ≤ 200 | ≤ 200 |
| C=C(F)C(=O)N1CCC(Oc2cc3c(Nc4ccc(Cl)c(Cl)c4F)ncnc3cc2OC)CC1 [Compound 50, 1-(4-((4-((3,4-dichloro-2-fluorophenyl)amino)-7-methoxyquinazolin-6-yl)oxy)piperidin-1-yl)-2-fluoroprop-2-en-1-one] | 200 to 1000 | 200 to 1000 | > 1000 | ≤ 200 | ≤ 200 | > 1000 |
| C#CC(=O)N1CCC(Oc2cc3c(Nc4ccc(Cl)c(Cl)c4F)ncnc3cc2OC)CC1 [Compound 52, 1-(4-((4-((3,4-dichloro-2-fluorophenyl)amino)-7-methoxyquinazolin-6-yl)oxy)piperidin-1-yl)prop-2-yn-1-one] | 200 to 1000 | ≤ 200 | ≤ 200 | ≤ 200 | ≤ 200 | ≤ 200 |
| C#CC(=O)N1CCC(Oc2cc3c(Nc4ccc5ccccc5c4)ncnc3cc2OC)CC1 [Compound 53, 1-(4-((7-methoxy-4-(naphthalen-2-ylamino)quinazolin-6-yl)oxy)piperidin-1-yl)prop-2-yn-1-one] | ≤ 200 | ≤ 200 | ≤ 200 | ≤ 200 | ≤ 200 | ≤ 200 |
| C#CC(=O)N1CCC(Oc2cc3c(Nc4cccc5ccccc45)ncnc3cc2OC)CC1 [Compound 54, 1-(4-((7-methoxy-4-(naphthalen-1-ylamino)quinazolin-6-yl)oxy)piperidin-1-yl)prop-2-yn-1-one] | ≤ 200 | ≤ 200 | ≤ 200 | ≤ 200 | ≤ 200 | ≤ 200 |
| C#CC(=O)N1C2CCC1CC(Oc1cc3c(Nc4cccc5c4CCC5)ncnc3cc1OC)C2 (stereo not drawn) [Compound 56, 1-(3-((4-((2,3-dihydro-1H-inden-4-yl)amino)-7-methoxyquinazolin-6-yl)oxy)-8-azabicyclo[3.2.1]octan-8-yl)prop-2-yn-1-one] | 200 to 1000 | ≤ 200 | 200 to 1000 | ≤ 200 | ≤ 200 | 200 to 1000 |
| C#CC(=O)N1C2CCCC1CC(Oc1cc3c(Nc4cccc5ccccc45)ncnc3cc1OC)C2 (stereo not drawn) [Compound 57, 1-(3-((7-methoxy-4-(naphthalen-1-ylamino)quinazolin-6-yl)oxy)-9-azabicyclo[3.3.1]nonan-9-yl)prop-2-yn-1-one] | ≤ 200 | ≤ 200 | ≤ 200 | ≤ 200 | ≤ 200 | ≤ 200 |
| C#CC(=O)N1C2CCCC1CC(Oc1cc3c(Nc4ccc5ccccc5c4)ncnc3cc1OC)C2 (stereo not drawn) [Compound 58, 1-(3-((7-methoxy-4-(naphthalen-2-ylamino)quinazolin-6-yl)oxy)-9-azabicyclo[3.3.1]nonan-9-yl)prop-2-yn-1-one] | ≤ 200 | ≤ 200 | ≤ 200 | ≤ 200 | ≤ 200 | 200 to 1000 |
| C#CC(=O)N1C2CCC1CC(Oc1cc3c(Nc4ccc5ccccc5c4)ncnc3cc1OC)C2 (stereo not drawn) [Compound 59, 1-(3-((7-methoxy-4-(naphthalen-2-ylamino)quinazolin-6-yl)oxy)-8-azabicyclo[3.2.1]octan-8-yl)prop-2-yn-1-one] | 200 to 1000 | ≤ 200 | ≤ 200 | ≤ 200 | ≤ 200 | 200 to 1000 |
| C#CC(=O)N1C2CCC1CC(Oc1cc3c(Nc4cccc5ccccc45)ncnc3cc1OC)C2 (stereo not drawn) [Compound 60, 1-(3-((7-methoxy-4-(naphthalen-1-ylamino)quinazolin-6-yl)oxy)-8-azabicyclo[3.2.1]octan-8-yl)prop-2-yn-1-one] | 200 to 1000 | ≤ 200 | ≤ 200 | ≤ 200 | ≤ 200 | 200 to 1000 |
| C#CC(=O)N1CCCC(c2ccc3ncnc(Nc4ccc(Cl)c(Cl)c4F)c3c2)C1 (stereo not drawn) [Compound 61, 1-(3-(4-((3,4-dichloro-2-fluorophenyl)amino)quinazolin-6-yl)piperidin-1-yl)prop-2-yn-1-one] | 200 to 1000 | ≤ 200 | ≤ 200 | ≤ 200 | ≤ 200 | ≤ 200 |
